Reference: US10981894B2, “Melanocortin subtype-2 receptor (MC2R) antagonists and uses thereof” (Crinetics Pharmaceuticals, Inc., priority 2018, dated 2021)

Each compound was assayed against hMC2 receptor (Homo sapiens, UniProt Q01718) (assay: hMC2 membrane binding assay ([125I]ACTH (1-39) Tyr23, SPA)). Settings: crude hMC2R membranes from CRE-bla-CHO-K1 cells expressing hMC2 receptor and hMRAP; [125I]ACTH (1-39) Tyr23 0.2 nM; 1.5 hours at room temperature; read-out: MC2R binding potency.
Design: scale not given here
Description: Crude membrane fractions are prepared from CRE-bla-CHO-K1 cells stably expressing hMC2 receptor and hMRAP accessory protein (Thermo Fisher). The cells are grown to 85-100% confluence on standard tissue culture dishes in GlutaMax DMEM growth media (Gibco) with following additives: 10% dialyzed FBS (Gemini), 0.1 mM NEAA (Gibco), 25 mM HEPES (Gibco), 5 μg/mL blasticidin (Goldbio), 100 μg/mL zeocin (Invitrogen), 600 μg/mL hygromycin (Goldbio). To prepare membranes, cells are scraped and collected in 1× Dulbecco's phosphate buffered saline (Corning) and then pelleted at 1000 RPM's. The cell pellet is reconstituted in membrane preparation buffer (20 mM HEPES, 6 mM MgCl2 and 1 mM EGTA, protease inhibitor tablets (Pierce) adjusted to pH 7.4), homogenized using a dounce homogenizer, and the resulting membrane fraction is pelleted by centrifugation at 12,000 RPM's. The membrane pellet is resuspended in membrane preparation buffer, snap freezed and stored at −80° C. for later use.
Binding Assay for hMC2 Antagonists Protocol:
The hMC2 membrane binding assay utilizes the following components: radiolabel [^125I]ACTH (1-39) Tyr23 (PerkinElmer), wheatgerm agglutinin coated PVT SPA beads (PerkinElmer), crude hMC2R membranes, and compounds. Briefly hMC2R membranes are incubated with SPA beads in binding assay buffer (50 mM HEPES, 5 mM MgCl2, 1 mM CaCl2, 0.2% BSA, protease inhibitor tablets (Pierce) adjusted to pH7.4) prior to assay initiation. A dose response of compound (the final concentration of compound are typically 0-10,000 nM), SPA membranes, and [^125I]ACTH (1-39) Tyr23 at a final concentration of 0.2 nM is plated in a 96-well assay plate and allowed to incubate 1.5 hours at room temperature. Assay plates are read using a Top Count NXT and Ki values for compounds are determined using a GraphPad Prism 6 non-linear regression analysis.

Chain of hMC2 receptor (Q01718 whole entry): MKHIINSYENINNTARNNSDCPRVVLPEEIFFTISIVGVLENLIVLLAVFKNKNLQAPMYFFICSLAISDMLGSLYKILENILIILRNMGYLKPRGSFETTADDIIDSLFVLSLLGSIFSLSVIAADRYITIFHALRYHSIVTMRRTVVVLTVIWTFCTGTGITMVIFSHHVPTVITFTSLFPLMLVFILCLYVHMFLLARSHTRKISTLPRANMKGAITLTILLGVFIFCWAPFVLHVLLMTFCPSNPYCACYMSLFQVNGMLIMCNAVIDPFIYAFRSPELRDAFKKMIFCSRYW
Chain of hMC2 receptor (Q8TCY5 whole entry partner): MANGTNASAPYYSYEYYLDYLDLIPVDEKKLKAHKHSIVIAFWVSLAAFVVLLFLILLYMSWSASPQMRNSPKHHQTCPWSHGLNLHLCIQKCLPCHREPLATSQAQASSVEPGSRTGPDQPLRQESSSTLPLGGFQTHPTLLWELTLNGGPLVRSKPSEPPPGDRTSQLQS

Q: For CCOc1ncccc1-c1ccc(N2CCN(C(=O)c3ccc(Cl)cc3C(F)(F)F)C[C@H]2CC)c(C(=O)NC2CN(C)C2)c1 [Compound 1-216, 2-[(2R)-4-[4-chloro-2-(trifluoromethyl)benzoyl]-2-ethylpiperazin-1-yl]-5-(2-ethoxypyridin-3-yl)-N-(1-methylazetidin-3-yl)benzamide], which Ki is on record?
A: The Ki was < 10 nM.

Q: CCOc1ncccc1-c1ccc(N2CCN(C(=O)c3ccc(C)cc3C)C[C@H]2CC)c(C(=O)NCCN)c1 [Compound 1-60, N-(2-aminoethyl)-2-[(2R)-4-(2,4-dimethylbenzoyl)-2-ethylpiperazin-1-yl]-5-(2-ethoxypyridin-3-yl)benzamide] was tested. Which Ki did it give?
A: The Ki was < 10 nM.

Q: Which Ki does the source give for CCOc1ncccc1-c1ccc(N2CCN(C(=O)C3(C(F)(F)F)CCCC3)C[C@H]2CC)c(C(=O)NC[C@H]2CCN2)n1 [Compound 1-327, N-{[(2R)-azetidin-2-yl]methyl}-2′-ethoxy-5-[(2R)-2-ethyl-4-[1-(trifluoromethyl)cyclopentanecarbonyl]piperazin-1-yl]-[2,3′-bipyridine]-6-carboxamide] here?
A: Its Ki is < 10 nM.

Q: How did the Ki turn out when CCOc1ncccc1-c1ccc(N2CCN(C(=O)c3ccc(NC)nc3C(F)(F)F)C[C@H]2CC)c(C(=O)NCCNC)c1F [Compound 1-163, 3-(2-ethoxypyridin-3-yl)-6-[(2R)-2-ethyl-4-[6-(methylamino)-2-(trifluoromethyl)pyridine-3-carbonyl]piperazin-1-yl]-2-fluoro-N-[2-(methylamino)ethyl]benzamide] was run?
A: Its Ki is < 10 nM.

Q: CCOc1ccccc1-c1ccc(N2CCN(C(=O)C3(CC(F)(F)F)CCC3)C[C@H]2CC)c(C(=O)N[C@@H]2CCN(C)C2)n1 [Compound 1-349, 6-(2-ethoxyphenyl)-3-[(2R)-2-ethyl-4-[1-(2,2,2-trifluoroethyl)cyclobutanecarbonyl]piperazin-1-yl]-N-[(3R)-1-methylpyrrolidin-3-yl]pyridine-2-carboxamide] was tested. Which Ki did it give?
A: Its Ki is < 10 nM.

Q: CCOc1ncccc1-c1ccc(N2CCN(C(=O)c3ccc(F)cc3C(F)F)C[C@H]2CC)c(C(=O)NCCN(C)C)c1F [Compound 1-176, 6-[(2R)-4-[2-(difluoromethyl)-4-fluorobenzoyl]-2-ethylpiperazin-1-yl]-N-[2-(dimethylamino)ethyl]-3-(2-ethoxypyridin-3-yl)-2-fluorobenzamide] was tested. Which Ki did it give?
A: The Ki was < 10 nM.

Q: For CCOc1ncccc1-c1ccc(N2CCN(C(=O)c3ccc(Cl)cc3C(F)F)C[C@H]2CC)c(C(=O)NCCNC)n1 [Compound 1-213, 5-[(2R)-4-[4-chloro-2-(difluoromethyl)benzoyl]-2-ethylpiperazin-1-yl]-2′-ethoxy-N-[2-(methylamino)ethyl]-[2,3′-bipyridine]-6-carboxamide], which Ki is on record?
A: Its Ki is < 10 nM.

Q: With CCOc1ncccc1-c1ccc(N2CCN(C(=O)N3CCCC3(C)C(F)(F)F)C[C@H]2CC)c(C(=O)N[C@@H]2CCNC2)n1 (stereo partly drawn) [Compound 1-326, 2′-ethoxy-5-[(2R)-2-ethyl-4-[2-methyl-2-(trifluoromethyl)pyrrolidine-1-carbonyl]piperazin-1-yl]-N-[(3R)-pyrrolidin-3-yl]-[2,3′-bipyridine]-6-carboxamide] as the compound, how does the Ki read?
A: Its Ki is < 10 nM.

Q: How did the Ki turn out when CCOc1cccnc1-c1ccc(N2CCN(C(=O)c3ccc(C(F)(F)F)cc3Cl)C[C@H]2CC)c(C(=O)NCCN)c1 [Compound 1-32, N-(2-aminoethyl)-2-[(2R)-4-[2-chloro-4-(trifluoromethyl)benzoyl]-2-ethylpiperazin-1-yl]-5-(3-ethoxypyridin-2-yl)benzamide] was run?
A: The Ki was 10 to 100 nM.

Q: How did the Ki turn out when CCOc1ncccc1-c1ccc(N2CCN(C(=O)C34CCC(C(F)(F)F)(CC3)CC4)C[C@H]2CC)c(C(=O)N[C@@H]2CCNC2)n1 [Compound 1-274, 2′-ethoxy-5-[(2R)-2-ethyl-4-[4-(trifluoromethyl)bicyclo[2.2.2]octane-1-carbonyl]piperazin-1-yl]-N-[(3R)-pyrrolidin-3-yl]-[2,3′-bipyridine]-6-carboxamide] was run?
A: The Ki was < 10 nM.

Q: How did the Ki turn out when CCOc1ncccc1-c1ccc(N2CCN(C(=O)c3ccc(Cl)cc3N3CC[C@@H](CN)C3)C[C@H]2CC)c(C(=O)NCCN)c1 [Compound 1-41, N-(2-aminoethyl)-2-[(2R)-4-{2-[(3S)-3-(aminomethyl)pyrrolidin-1-yl]-4-chlorobenzoyl}-2-ethylpiperazin-1-yl]-5-(2-ethoxypyridin-3-yl)benzamide] was run?
A: The Ki was < 10 nM.

Q: CCOc1ncccc1-c1ccc(N2CCN(C(=O)c3ccc(Cl)cc3C(F)(F)F)C[C@H]2CC)c(C(=O)NCCN)c1 [Compound 1-37, N-(2-aminoethyl)-2-[(2R)-4-[4-chloro-2-(trifluoromethyl)benzoyl]-2-ethylpiperazin-1-yl]-5-(2-ethoxypyridin-3-yl)benzamide] was tested. Which Ki did it give?
A: Its Ki is < 10 nM.

Q: How did the Ki turn out when CCOc1ncccc1-c1ccc(N2CCN(C(=O)c3ccc(Cl)cc3C#N)C[C@H]2CC)c(C(=O)N[C@@H]2CCNC2)c1 [Compound 1-142, 2-[(2R)-4-(4-chloro-2-cyanobenzoyl)-2-ethylpiperazin-1-yl]-5-(2-ethoxypyridin-3-yl)-N-[(3R)-pyrrolidin-3-yl]benzamide] was run?
A: Its Ki is < 10 nM.

Q: For CCOc1ncccc1-c1ccc(N2CCN(C(=O)c3ccc(OC)nc3C(F)(F)F)C[C@H]2CC)c(C(=O)NC2CN(C)C2)n1 [Compound 1-230, 2′-ethoxy-5-[(2R)-2-ethyl-4-[6-methoxy-2-(trifluoromethyl)pyridine-3-carbonyl]piperazin-1-yl]-N-(1-methylazetidin-3-yl)-[2,3′-bipyridine]-6-carboxamide], which Ki is on record?
A: The Ki was < 10 nM.

Q: CCOc1ncccc1-c1ccc(N2CCN(C(=O)C3(c4ccccc4)CCC3)C[C@H]2CC)c(C(=O)N[C@@H]2CCNC2)n1 [Compound 1-353, 2′-ethoxy-5-[(2R)-2-ethyl-4-(1-phenylcyclobutanecarbonyl)piperazin-1-yl]-N-[(3R)-pyrrolidin-3-yl]-[2,3′-bipyridine]-6-carboxamide] was tested. Which Ki did it give?
A: The Ki was < 10 nM.

Q: Which Ki does the source give for CCOc1ccccc1-c1ccc(N2CCN(C(=O)n3ccc4cccc(C(F)(F)F)c43)C[C@H]2CC)c(C(=O)N[C@@H]2CCN(C)C2)n1 [Compound 1-437, 6-(2-ethoxyphenyl)-3-[(2R)-2-ethyl-4-[7-(trifluoromethyl)-1H-indole-1l-carbonyl]piperazin-1-yl]-N-[(3R)-1-methylpyrrolidin-3-yl]pyridine-2-carboxamide] here?
A: Its Ki is < 10 nM.

Q: CCOc1ncccc1-c1ccc(N2CCN(C(=O)c3cc(Cl)sc3Cl)C[C@H]2CC)c(C(=O)N[C@@H]2CCN(C)C2)n1 [Compound 1-378, 5-[(2R)-4-(2,5-dichlorothiophene-3-carbonyl)-2-ethylpiperazin-1-yl]-2′-ethoxy-N-[(3R)-1-methylpyrrolidin-3-yl]-[2,3′-bipyridine]-6-carboxamide] was tested. Which Ki did it give?
A: Its Ki is < 10 nM.

Q: How did the Ki turn out when CCOc1ccc(C(=O)N2CCN(c3ccc(-c4cccnc4OCC)nc3C(=O)NCCN(C)C)[C@H](CC)C2)c(C(F)(F)F)n1 [Compound 1-207, N-[2-(dimethylamino)ethyl]-2′-ethoxy-5-[(2R)-4-[6-ethoxy-2-(trifluoromethyl)pyridine-3-carbonyl]-2-ethylpiperazin-1-yl]-[2,3′-bipyridine]-6-carboxamide] was run?
A: The Ki was < 10 nM.

Q: Which Ki does the source give for CCOc1ncccc1-c1ccc(N2CCN(C(=O)c3ccc(F)cc3Cl)C[C@H]2CC)c(C(=O)N[C@@H]2CCN(C)C2)n1 [Compound 1-261, 5-[(2R)-4-[2-chloro-4-fluorobenzoyl]-2-ethylpiperazin-1-yl]-2′-ethoxy-N-[(3R)-1-methylpyrrolidin-3-yl]-[2,3′-bipyridine]-6-carboxamide] here?
A: The Ki was < 10 nM.
